In brackets after ≈: the same amount, converted by molar mass. Activity calls are given as the source filed them. The rule behind the calls is not given here.
How the values were obtained:
Hepatitis B virus [1] = experiment: Antiviral activity against Hepatitis B virus infected in human Hep3B cells assessed as suppression of viral surface antigen secretion after 48 hrs by enzyme immunoassay; type: functional, organism-based, Hep 3B2
[2] = Cytotoxicity against human Hep3B cells by MTT assay; type: cell-based, Hep 3B2
[3] = Cytotoxicity against human Hep3B cells at >20 […] by MTT assay; type: cell-based; settings: hep 3b2
Hepatitis B virus [4] = experiment: Antiviral activity against Hepatitis B virus infected in human Hep3B cells assessed as suppression of viral surface antigen secretion at >5 […] after 48 hrs by enzyme immunoassay; type: functional, organism-based; settings: Hep 3B2

IC50 (Hepatitis B virus [1])	Structure (SMILES)	CC50 [2]	Activity [3]	Activity (Hepatitis B virus [4])
2 µg/mL (≈ 6.13 µM)	COC(=O)c1c2c(c3ccccc3c1OC(C)=O)OC(C)(C)C=C2 [ACETYLMOLLUGIN]	10 µg/mL (≈ 30.6 µM)		
2 µg/mL (≈ 7.03 µM)	COC(=O)c1c2c(c3ccccc3c1O)OC(C)(C)C=C2 [MOLLUGIN]		Not Active	
2 µg/mL (≈ 6.99 µM)	COC(=O)c1c2c(c3ccccc3c1O)OC(C)(C)CC2 [DIHYDROMOLLUGIN]	8.2 µg/mL (≈ 28.6 µM)		
	COC(=O)c1c2c(c3ccccc3c1OC)OC(C)(C)CC2 [DIHYDROMOLLUGIN METHYL ETHER]	7 µg/mL (≈ 23.3 µM)		inactive
0.8 µg/mL (≈ 2.26 µM)	COc1c(C(=O)OCCC(C)C)c2c(c3ccccc13)OC(C)(C)C=C2	10 µg/mL (≈ 28.2 µM)		
	COC(=O)c1c(OC)c2ccccc2c2occc12 [METHYLFUROMOLLUGIN]		Not Active	inactive
	COC(=O)c1c(OC)c2ccccc2c2oc(=O)ccc12 [METHYLRUBILACTONE]	12.5 µg/mL (≈ 44 µM)		inactive
	COC(=O)c1c(O)c2ccccc2c2oc(=O)ccc12 [RUBILACTONE]	4 µg/mL (≈ 14.8 µM)		inactive
1 µg/mL (≈ 2.67 µM)	COC(=O)c1c2c(c3ccccc3c1OCc1ccccc1)OC(C)(C)C=C2		Not Active	
	COC(=O)c1c2c(c3ccccc3c1OC)OC(C)(C)C=C2 [MOLLUGIN METHYL ETHER]		Not Active	inactive
4.5 µg/mL (≈ 15.8 µM)	COc1c(C(=O)O)c2c(c3ccccc13)OC(C)(C)C=C2		Not Active	
2 µg/mL (≈ 8.26 µM)	COC(=O)c1c(O)c2ccccc2c2occc12 [FUROMOLLUGIN]	11.5 µg/mL (≈ 47.5 µM)		

— ChEMBL document CHEMBL1158241, “Inhibition of hepatitis B surface antigen secretion on human hepatoma cells. Components from Rubia cordifolia” (J Nat Prod, 1996)
